According to patent publication US20240051956A1, “SOS1 INHIBITORS AND USES THEREOF” (QILU REGOR THERAPEUTICS INC., priority 2020, published 2024):

How the values were obtained:
[1] = system: NCI-H358; experiment: Cell proliferation assay, 3D, CellTiter-Glo 3D; assay type: cell-based, human; conditions: Homo sapiens, 72 h; NCI-H358 (KRAS G12C), 3D ultra-low attachment, 3 days; read-out: anit-prolif. H358 IC50
Description: b. Cell Proliferation Assay
Low IC50 values are indicative of high potency of the compounds in this assay setting.
Cell proliferation assay is performed in three-dimensional (3D) ultra-low conditions with the human cell line NCI-H358, a human non-small cell lung cancer (NSCLC) cell line with a KRAS G12C mutation.
• 96-well Clear Round Bottom Ultra-Low Attachment Microplate (Corning, Cat. 7007) • 96-well Flat Clear Bottom White Polystyrene TC-treated Microplates (Corning, Cat. 3610) • RPMI-1640 Medium (Gibco, Cat. 22400105) • Fetal Bovine Serum (FBS) (Gibco, Cat. 10099141C) • 0.25% Trypsin-EDTA (Gibco, Cat. 25200056) • Penicillin-Streptomycin (Gibco, Cat. 15140122) • CellTiter-Glo 3D Cell Viability Assay (Promega, Cat. G9683)
NCI-H358 cells (ATCC, Cat. CRL-5807) are grown in cell culture flasks using RPMI medium supplemented with 10% FBS. Cells are incubated at 37° C. and 5% C02 in a humidified atmosphere, with sub-cultivation performed twice a week. Cells are trypsinized, counted and plated in 96-well ultra-low adhesion plates for 3D cell viability determination. The day after plating, serial dilutions of SOS1 inhibitor compounds are made using Tecan D300e Digital Dispenser to evaluate a concentration-dependent effect on cell viability. The concentration of the test compounds covers a range between 5 μM and 0.76 nM with serial 1:3 dilutions in 9 concentrations. 0.5 μL serial dilutions of the compounds are added in duplicates. 3 days later, the CellTiter-Glo 3D Cell Viability Assay is used to measure cell viability effects of SOS1 inhibitor compounds in 3D format. Luminescent intensity is determined using Envision (PerkinElmer). Data is analyzed and IC50 values are calculated using GraphPad Prism.

[2] = biological target: SOS1 and KRAS G12D (Homo sapiens (Human), UniProt Q07889); experiment: KRAS::SOS1 AlphaScreen Binding Assay; conditions: SOS1 (564-1049), KRAS G12D (1-169), GDP
Source text: a. KRAS::SOS1 AlphaScreen Binding Assay
Low IC50 values of given compounds are indicative of high potency of the SOS1 inhibitor compounds in this assay setting.
• GST-TEV-SOS1 (564-1049) and His-TEV-Avi-KRAS G12D (1-169) are purchased from Viva Biotech (Shanghai) Ltd. • GDP (Sigma, Cat. G7127) • AlphaLISA Glutathione Acceptor Beads (PerkinElmer, Cat. AL109C) • AlphaScreen Streptavidin Donor Beads (PerkinElmer, Cat. 6760002S) • Assay plates: ProxiPlate-384 Plus, White 384-shallow well Microplate (PerkinElmer, Cat. 6008280)
SOS1 inhibitor compounds are diluted to a final start concentration of […]. Serial dilutions of compounds are made using Tecan D300e Digital Dispenser in 9 concentrations with serial 1:3 dilutions. 100 nL of compound solution is transferred to the 384-well assay plate per well, covering a range between 1 μM and 0.15 nM minimum in duplicate. 10 nM (final assay concentration) KRAS G12D, 5 nM (final assay concentration) SOS1 and 10 μM (final assay concentration) GDP are mixed in assay buffer, and 5 μL of KRAS::SOS1 GDP mix is added into the assay plate to the 100 nL of compound solution (final dilution in the assay 1:100, final DMSO concentration 1%). After a 30 min incubation, AlphaLISA Glutathione Acceptor Beads and AlphaScreen Streptavidin Donor Beads are mixed in assay buffer at a concentration of 5 µg/mL (final assay concentration), and 5 μL of bead mix is added into the assay plate. Plates are kept at room temperature in a darkened incubator for 3 h. After a 3 h incubation, the signal is determined using Envision (PerkinElmer). The excitation wavelength is 680 nm, and emission 615 nm. IC50 values are calculated and analyzed using GraphPad Prism.

SOS1 and KRAS G12D, sequence (Q07889 564-1049, stated change not applied): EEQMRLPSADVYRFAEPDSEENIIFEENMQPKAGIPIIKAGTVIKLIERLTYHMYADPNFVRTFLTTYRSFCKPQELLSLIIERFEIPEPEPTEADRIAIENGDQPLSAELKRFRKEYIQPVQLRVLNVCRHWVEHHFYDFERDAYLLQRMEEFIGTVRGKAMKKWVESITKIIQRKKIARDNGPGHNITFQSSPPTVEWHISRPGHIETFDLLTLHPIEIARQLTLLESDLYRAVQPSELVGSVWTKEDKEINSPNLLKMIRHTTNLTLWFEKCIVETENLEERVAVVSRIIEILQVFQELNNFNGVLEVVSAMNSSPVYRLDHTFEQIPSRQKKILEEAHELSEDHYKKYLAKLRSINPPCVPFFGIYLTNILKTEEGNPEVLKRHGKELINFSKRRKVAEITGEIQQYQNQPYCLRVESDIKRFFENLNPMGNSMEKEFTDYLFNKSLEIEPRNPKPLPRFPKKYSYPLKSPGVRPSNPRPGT

SMILES	IC50 [1] [nM]	IC50 [2] [nM]
Cc1nc(N[C@H](C)c2cccc(C(F)F)c2F)c2cn(N3CCCCC3)c(=O)cc2n1 [Example 2]	≤ 100	≤ 15
Cc1nc(N[C@H](C)c2cccc(C(F)F)c2F)c2cn(N3CCC(F)(F)CC3)c(=O)cc2n1 [Example 3]	100 to 500	≤ 15
Cc1nc(N[C@H](C)c2cccc(C(F)F)c2F)c2cn(N3CCN(C(=O)OC(C)(C)C)CC3)c(=O)cc2n1 [Example 4]	100 to 500	15 to 150
Cc1nc(N[C@H](C)c2cccc(C(F)F)c2F)c2cn(N3C[C@@H](C)O[C@@H](C)C3)c(=O)cc2n1 [Example 5]	100 to 500	≤ 15
Cc1nc(N[C@H](C)c2cccc(C(F)F)c2F)c2cn(N3CCCOCC3)c(=O)cc2n1 [Example 6]	≤ 100	≤ 15
COC1CCN(n2cc3c(N[C@H](C)c4cccc(C(F)F)c4F)nc(C)nc3cc2=O)CC1 [Example 7]	100 to 500	≤ 15
Cc1nc(N[C@H](C)c2cccc(C(F)F)c2F)c2cn(N3CC4CC3CO4)c(=O)cc2n1 (stereo partly drawn) [Example 8]	100 to 500	≤ 15
Cc1nc(N[C@H](C)c2cccc(C(F)F)c2F)c2cn(N3CC4(COC4)C3)c(=O)cc2n1 [Example 9]	100 to 500	≤ 15
Cc1nc(N[C@H](C)c2cccc(C(F)F)c2F)c2cn(N3CCNCC3)c(=O)cc2n1 [Example 10, 4-[[(1R)-1-[3-(difluoromethyl)-2-fluoro-phenyl]ethyl]amino]-2-methyl-6-piperazin-1-yl-pyrido[4,3-d]pyrimidin-7-one]	> 1000	≤ 15
CC(=O)N1CCN(n2cc3c(N[C@H](C)c4cccc(C(F)F)c4F)nc(C)nc3cc2=O)CC1 [Example 11, 6-(4-acetylpiperazin-1-yl)-4-[[(1R)-1-[3-(difluoromethyl)-2-fluoro-phenyl]ethyl]amino]-2-methyl-pyrido[4,3-d]pyrimidin-7-one]	500 to 1000	≤ 15
Cc1nc(NC(C)C2CC2)c2cn(N3CCOCC3)c(=O)cc2n1 (stereo not drawn) [Example 23]	–	> 1000
Cc1nc(NCc2cccc(C(F)(F)F)c2)c2cn(N3CCOCC3)c(=O)cc2n1 [Example 26]	–	15 to 150
Cc1nc(NCc2ccc3cc[nH]c3c2)c2cn(N3CCOCC3)c(=O)cc2n1 [Example 27]	–	> 1000
Cc1nc(NC(C)c2cc(C(F)F)cc(C(F)F)c2)c2cn(N3CCOCC3)c(=O)cc2n1 (stereo not drawn) [Example 28]	–	150 to 1000

Results, then the compound that gave them:

IC50 [1] [nM]	IC50 [2] [nM]	SMILES
–	≤ 15	Cc1nc(N[C@H](C)c2cccc(C(F)F)c2F)c2cn(N3CCOCC3)c(=O)c(-c3ccc(C(=O)O)nc3)c2n1 [Example 78]
–	≤ 15	COC(=O)c1ccc(-c2c(=O)n(N3CCOCC3)cc3c(N[C@H](C)c4cccc(C(F)F)c4F)nc(C)nc23)cn1 [Example 79]
–	≤ 15	Cc1nc(N[C@H](C)c2cccc(C(F)F)c2F)c2cn(N3CCOCC3)c(=O)c(-c3ccc(C(N)=O)nc3)c2n1 [Example 80]
–	≤ 15	Cc1nc(N[C@H](C)c2cccc(C(F)F)c2F)c2cn(N3CCOCC3)c(=O)c(-c3ccn[nH]3)c2n1 [Example 81]
–	≤ 15	Cc1nc(N[C@H](C)c2cccc(C(F)(F)CO)c2)c2cn(N3CCOCC3)c(=O)c(-c3ccc(C#N)nc3)c2n1 [Example 82]
–	≤ 15	Cc1nc(N[C@H](C)c2cc(N)cc(C(F)(F)F)c2)c2cn(N3CCOCC3)c(=O)c(-c3ccc(C#N)nc3)c2n1 [Example 83]
–	≤ 15	Cc1nc(N[C@H](C)c2cccc(C(F)F)c2F)c2cn(N3CCOCC3)c(=O)c(-c3cnc4nccn4c3)c2n1 [Example 84]
–	≤ 15	Cc1nc(N[C@H](C)c2cccc(C(F)F)c2F)c2cn(N3CCOCC3)c(=O)c(C3=CCS(=O)(=O)CC3)c2n1 [Example 85]
–	150 to 1000	Cc1nc(N[C@H](C)c2cccc(C(F)F)c2F)c2cn(-n3cnnc3)c(=O)c(F)c2n1 [Example 87]
